What was measured:
CYP2C9 = CYP2C9 (Homo sapiens, UniProt P11712); assay: CYP inhibition; assay type: in vitro ADME
pKa = assay type: physicochemical
Description: (§1) To determine the binding affinities, saturation binding experiments of the corresponding tritiated ligands were conducted on CHO membranes stably expressing mGluR2. […] Multiparameter optimization (MPO) is a valuable tool to evaluate the BBB permeability of drug candidates. […] To investigate the selectivity of AZ12559322 for mGluR2, further counter-screening of AZ12559322 was conducted, and the results are detailed in Figure 3C.

mGluR2 [1] = target: T1, mGluR2 (Homo sapiens, UniProt Q14416); assay: Counter-screening, mGluR family selectivity; assay type: biochemical
T1 construct: expressed in transfected cells; host or cells: CHO
Description: as §1

mGluR7 = mGluR7 (Homo sapiens, UniProt Q14831); assay: Counter-screening, mGluR family selectivity; assay type: biochemical
Description: as §1

mGluR8 = mGluR8 (Homo sapiens, UniProt O00222); assay: Counter-screening, mGluR family selectivity; assay type: biochemical
Description: as §1

mGluR1 = mGluR1 (Homo sapiens, UniProt Q13255); assay: Counter-screening, mGluR family selectivity; assay type: biochemical
Description: as §1

mGluR3 = mGluR3 (Homo sapiens, UniProt Q14832); assay: Counter-screening, mGluR family selectivity; assay type: biochemical
Description: as §1

mGluR4 = mGluR4 (Homo sapiens, UniProt Q14833); assay: Counter-screening, mGluR family selectivity; assay type: biochemical
Description: as §1

mGluR6 = mGluR6 (Homo sapiens, UniProt O15303); assay: Counter-screening, mGluR family selectivity; assay type: biochemical
Description: as §1

mGluR5 = mGluR5 (Homo sapiens, UniProt P41594); assay: Counter-screening, mGluR family selectivity; assay type: biochemical
Description: as §1

CYP2C19 = CYP2C19 (Homo sapiens, UniProt P33261); assay: CYP inhibition; assay type: in vitro ADME
CYP2D6 = CYP2D6 (Homo sapiens, UniProt P10635); assay: CYP inhibition; assay type: in vitro ADME
hERG channel = hERG channel (Homo sapiens, UniProt Q12809); assay: hERG channel inhibition; assay type: biochemical
mGluR2 [2] = target: T1, mGluR2; assay: Saturation binding of tritiated ligands on CHO membranes stably expressing mGluR2; settings: for Ki: mGluR2, CHO membranes; for Kd: saturation binding of tritiated ligand, CHO membranes expressing mGluR2
Description: as §1

mGluR2 [3] = target: T2, mGluR2 (Rattus norvegicus, UniProt P31421); assay: In vitro ARG of [3H]AZ12559322 on rat brain tissues (binding data, Figure S1); settings: determined by in vitro ARG of [3H]AZ12559322 on rat brain tissues
T2 construct: the brain sections of rat or cynomolgus monkey brains in 20 μm thickness; from tissue; host or cells: rat brain sections
Description: To determine the binding affinities, saturation binding experiments of the corresponding tritiated ligands were conducted on CHO membranes stably expressing mGluR2. […] The blood–brain barrier permeability (log BB) values of 3a–3c were predicted in the range of −0.14 to −0.51. Multiparameter optimization (MPO) is a valuable tool to evaluate the BBB permeability of drug candidates. In general, CNS MPO scores on a scale between 0 and 6, and the score value ≥4.0 is highly desirable. […] Therefore, AZ12559322 was selected as the most promising mGluR2 PAM for further ADME profiling. To investigate the selectivity of AZ12559322 for mGluR2, further counter-screening of AZ12559322 was conducted, and the results are detailed in Figure 3C.
(§2) The tritium-labeled ligand [^3H]AZ12559322 for ARG studies was prepared by AstraZeneca.[23] Briefly, the brain sections of rat or cynomolgus monkey brains in 20 μm thickness were warmed to room temperature in a vacuum chamber over 3 h on the day of the experiment.[52] All sections were incubated in 50 mM Tris HCl, 5 mM MgCl2, and 0.9% NaCl (pH 7.4) for 5 min at room temperature. The brain sections were dried and incubated with [^3H]AZ12559322 in the above buffer for 30 min at ambient temperature. […]

CYP3A4 = CYP3A4 (Homo sapiens, UniProt P08684); assay: CYP inhibition; assay type: in vitro ADME
CYP1A2 = target: T3, CYP1A2 (Homo sapiens, UniProt P05177); assay: CYP inhibition; assay type: in vitro ADME
T3 sequence (P05177 1-516): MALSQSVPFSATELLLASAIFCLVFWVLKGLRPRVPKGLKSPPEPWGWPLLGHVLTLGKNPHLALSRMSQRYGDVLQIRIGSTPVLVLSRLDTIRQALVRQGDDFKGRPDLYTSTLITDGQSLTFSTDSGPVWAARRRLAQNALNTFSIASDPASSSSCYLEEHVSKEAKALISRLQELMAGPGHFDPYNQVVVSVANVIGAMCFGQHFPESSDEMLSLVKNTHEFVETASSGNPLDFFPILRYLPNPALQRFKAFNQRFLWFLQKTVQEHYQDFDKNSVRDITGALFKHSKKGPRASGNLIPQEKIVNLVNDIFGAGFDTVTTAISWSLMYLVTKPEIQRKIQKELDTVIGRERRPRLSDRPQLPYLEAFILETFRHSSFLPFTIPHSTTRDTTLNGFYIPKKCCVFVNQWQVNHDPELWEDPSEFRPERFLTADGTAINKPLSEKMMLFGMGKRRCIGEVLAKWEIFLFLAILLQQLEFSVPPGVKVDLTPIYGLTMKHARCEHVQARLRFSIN

mGluR2 [4] = assay: In vitro autoradiography of NHP prefrontal cortex with [3H]AZ12559322 (blocking); assay type: binding, cynomolgus monkey; settings: blocker 5 μM, n = 2
Description: (§3) Encouraged by the promising ligand–protein binding ability of AZ12559322, in vitro autoradiography (ARG) studies were conducted on rat brain tissues to assess the binding specificity of [^3H]AZ12559322. Consistent with previous reports of the regional mGluR2 expression in the rat brain,[45] […] Subsequently, in vitro ARG studies with brain regions from cynomolgus monkeys were conducted to confirm the specificity in higher species. […] Subsequent immunohistochemical analyses verified that […] was binding to the regions with high expression of mGluR2 (see Figure S2 in the Supporting Information). Altogether, these studies indicated high mGluR2 in vitro binding specificity of AZ12559322 on rat and NHP brain tissue sections and positive allosteric mechanism of action.
Figure 6 In vitro autoradiography and quantitative analyses of NHP prefrontal cortex with [^3H]AZ12559322 (n = 2). Total binding and nonspecific binding in the presence of 5 μM of LY-487379 or AZD8418. *p < 0.05.
as §2, with “temperature.” for “temperature. The brain sections were dried and incubated with [^3H]AZ12559322 in the above buffer for 30 min at ambient temperature.”

mGluR2 [5] = target: T2, mGluR2; assay: In situ [35S]GTPγS autoradiography in rat brain tissue; assay type: biochemical; settings: in the presence of agonist LY379268
Description: as §3
(§4) The in situ GTPγS ARG studies in the rat and NHP brain tissues were conducted according to previous reports.[54] Briefly, […] thick brain tissue sections were incubated twice in assay buffer, pH 7.5 for 10 min at 25 °C and once in assay buffer with 2 mM GDP for 15 min at 25 °C. Slides were then incubated in an assay buffer containing 0.04 nM [^35S]GTPgS in the presence or absence of LY379268 and AZD8529 for 2 h at 25 °C. The incubation was stopped by washing twice for 3 min in ice-cold 50 mM Tris–HCl and a quick dip in ice-cold distilled water. […] Films were developed by standard techniques, digitized, and analyzed.

mGluR2 [6] = assay: In situ [35S]GTPγS autoradiography in NHP brain tissue; assay type: biochemical; settings: in the presence of agonist LY379268
Description: as §3, §4

mGluR2 [7] = target: T2, mGluR2; assay: In vitro autoradiography of rat brain tissue with [3H]AZ12559322 (baseline and blockade); assay type: binding; settings: baseline; high in prefrontal cortex, cerebral cortex, hippocampus; low in thalamus
Description: as §3
Figure 5 In vitro autoradiography of rat brain tissue with [^3H]AZ12559322. (A) Autoradiograms after incubation with either [^3H]AZ12559322 only (baseline) or 10 μM AZ12522721 (blockade). (B) Quantitative analyses of the autoradiograms under baseline and blocking conditions (n = 4). ***p ≤ 0.001, ns = nonsignificant.
The tritium-labeled ligand [^3H]AZ12559322 for ARG studies was prepared by AstraZeneca.[23] Briefly, the brain sections of rat or cynomolgus monkey brains in 20 μm thickness were warmed to room temperature in a vacuum chamber over 3 h on the day of the experiment.[52] […]

mGluR2 [8] = assay: PET imaging in NHP; assay type: in vivo; settings: cynomolgus monkey, IV injection, baseline
Description: With all three radioligands in hand, we sought to evaluate the feasibility of these radioligands for quantifying mGluR2 PAM occupancy in the NHP brain. PET imaging studies of [^11C]AZ12559322, [^11C]AZ12592068, and [^11C]AZ12588953 were performed in a cynomolgus monkey. Radioactivity was acquired for 120 min after IV injection of the respective radioligand. […] Further structural modification of these isoindolone derivatives is necessary to enhance brain exposure and provide a suitable radioligand for in vivo imaging.
PET imaging studies were conducted in one anesthetized healthy cynomolgus monkey and are fully detailed in Dahl et al.[53] The study was approved by the Stockholm Animal Research Ethical Committee (Dnr. N245/04). […] The head was immobilized with a fixation device, and body temperature was maintained by Bair Hugger model 505 (Arizant Healthcare, MN, USA) and continuously monitored by an esophageal thermometer. ECG, heart rate, blood pressure, respiratory rate, and oxygen saturation were continuously monitored throughout the experiments. […] Radioactivity in the brain was measured continuously for 123 min using the high-resolution research tomograph (HRRT; Siemens Molecular Imaging, Knoxville, TN, USA) according to a preprogrammed series of 34 frames.

T2 sequence (P31421 19-872): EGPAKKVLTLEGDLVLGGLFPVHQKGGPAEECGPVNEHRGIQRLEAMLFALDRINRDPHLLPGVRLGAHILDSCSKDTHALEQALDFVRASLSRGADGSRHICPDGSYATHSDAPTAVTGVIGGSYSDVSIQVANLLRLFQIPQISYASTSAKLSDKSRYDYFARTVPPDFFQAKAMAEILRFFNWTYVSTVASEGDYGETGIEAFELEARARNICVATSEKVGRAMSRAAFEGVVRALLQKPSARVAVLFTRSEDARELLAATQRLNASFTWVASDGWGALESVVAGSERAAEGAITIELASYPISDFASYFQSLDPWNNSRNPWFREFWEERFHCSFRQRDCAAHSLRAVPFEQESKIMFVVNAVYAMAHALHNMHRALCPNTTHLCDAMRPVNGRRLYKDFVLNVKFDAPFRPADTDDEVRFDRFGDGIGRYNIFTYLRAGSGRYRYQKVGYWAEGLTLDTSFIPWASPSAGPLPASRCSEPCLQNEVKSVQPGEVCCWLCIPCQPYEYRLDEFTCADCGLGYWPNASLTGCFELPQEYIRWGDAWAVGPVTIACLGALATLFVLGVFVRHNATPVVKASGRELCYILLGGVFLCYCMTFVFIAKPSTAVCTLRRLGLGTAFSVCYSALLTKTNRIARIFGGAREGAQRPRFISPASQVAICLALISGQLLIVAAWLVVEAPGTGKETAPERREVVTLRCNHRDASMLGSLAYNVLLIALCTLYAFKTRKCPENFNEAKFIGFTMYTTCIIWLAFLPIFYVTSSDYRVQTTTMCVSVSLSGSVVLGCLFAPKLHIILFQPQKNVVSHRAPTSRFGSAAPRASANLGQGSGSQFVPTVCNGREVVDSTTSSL
T1 sequence (Q14416 19-872): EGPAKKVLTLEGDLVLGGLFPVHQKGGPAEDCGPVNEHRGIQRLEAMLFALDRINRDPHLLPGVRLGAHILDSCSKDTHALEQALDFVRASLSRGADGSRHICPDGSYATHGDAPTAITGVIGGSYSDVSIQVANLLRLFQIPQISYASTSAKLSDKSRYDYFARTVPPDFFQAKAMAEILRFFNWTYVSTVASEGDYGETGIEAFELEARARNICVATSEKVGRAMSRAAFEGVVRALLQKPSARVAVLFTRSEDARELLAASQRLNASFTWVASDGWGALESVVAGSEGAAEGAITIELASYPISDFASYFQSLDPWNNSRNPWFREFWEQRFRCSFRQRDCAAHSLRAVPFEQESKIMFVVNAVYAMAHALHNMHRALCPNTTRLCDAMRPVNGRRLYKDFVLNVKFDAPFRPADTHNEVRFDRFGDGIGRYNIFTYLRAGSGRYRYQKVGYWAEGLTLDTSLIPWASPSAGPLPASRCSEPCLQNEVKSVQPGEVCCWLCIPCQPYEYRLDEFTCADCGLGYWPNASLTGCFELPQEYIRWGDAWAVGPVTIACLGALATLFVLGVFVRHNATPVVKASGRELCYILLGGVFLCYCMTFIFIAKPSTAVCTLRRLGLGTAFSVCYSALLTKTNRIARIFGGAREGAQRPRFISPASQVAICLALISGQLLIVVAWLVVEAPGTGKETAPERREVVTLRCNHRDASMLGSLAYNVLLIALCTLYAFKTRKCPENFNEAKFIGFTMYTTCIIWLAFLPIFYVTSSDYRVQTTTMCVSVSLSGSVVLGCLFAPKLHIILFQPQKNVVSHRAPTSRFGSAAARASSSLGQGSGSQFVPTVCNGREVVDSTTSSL
Chain of CYP2C19 (P33261 whole entry): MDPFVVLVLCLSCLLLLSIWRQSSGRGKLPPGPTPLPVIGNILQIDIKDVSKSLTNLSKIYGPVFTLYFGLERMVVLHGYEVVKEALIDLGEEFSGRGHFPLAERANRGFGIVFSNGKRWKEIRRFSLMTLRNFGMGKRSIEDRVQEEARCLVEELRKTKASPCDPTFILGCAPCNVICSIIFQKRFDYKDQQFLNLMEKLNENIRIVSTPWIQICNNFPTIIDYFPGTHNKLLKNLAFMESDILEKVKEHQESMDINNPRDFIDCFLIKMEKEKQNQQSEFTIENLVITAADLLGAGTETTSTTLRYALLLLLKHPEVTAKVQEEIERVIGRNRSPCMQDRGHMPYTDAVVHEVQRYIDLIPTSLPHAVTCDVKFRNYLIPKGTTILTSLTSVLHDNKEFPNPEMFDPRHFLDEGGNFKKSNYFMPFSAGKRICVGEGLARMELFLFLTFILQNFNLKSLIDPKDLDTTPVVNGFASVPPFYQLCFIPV
Chain of CYP2D6 (P10635 whole entry): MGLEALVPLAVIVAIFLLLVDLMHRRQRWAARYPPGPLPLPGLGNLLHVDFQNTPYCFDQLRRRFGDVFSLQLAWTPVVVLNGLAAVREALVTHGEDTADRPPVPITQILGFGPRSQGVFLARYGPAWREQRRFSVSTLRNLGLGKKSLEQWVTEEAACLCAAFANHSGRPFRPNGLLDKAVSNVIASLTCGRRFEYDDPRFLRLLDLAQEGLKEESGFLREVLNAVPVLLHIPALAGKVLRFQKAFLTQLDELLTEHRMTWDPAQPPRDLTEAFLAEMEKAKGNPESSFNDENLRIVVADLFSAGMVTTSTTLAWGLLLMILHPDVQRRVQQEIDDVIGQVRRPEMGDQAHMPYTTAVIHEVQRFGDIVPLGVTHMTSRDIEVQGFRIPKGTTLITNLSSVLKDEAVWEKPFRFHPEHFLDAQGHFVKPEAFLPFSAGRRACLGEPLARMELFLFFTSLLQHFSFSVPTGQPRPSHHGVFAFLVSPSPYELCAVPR
Chain of CYP3A4 (P08684 whole entry): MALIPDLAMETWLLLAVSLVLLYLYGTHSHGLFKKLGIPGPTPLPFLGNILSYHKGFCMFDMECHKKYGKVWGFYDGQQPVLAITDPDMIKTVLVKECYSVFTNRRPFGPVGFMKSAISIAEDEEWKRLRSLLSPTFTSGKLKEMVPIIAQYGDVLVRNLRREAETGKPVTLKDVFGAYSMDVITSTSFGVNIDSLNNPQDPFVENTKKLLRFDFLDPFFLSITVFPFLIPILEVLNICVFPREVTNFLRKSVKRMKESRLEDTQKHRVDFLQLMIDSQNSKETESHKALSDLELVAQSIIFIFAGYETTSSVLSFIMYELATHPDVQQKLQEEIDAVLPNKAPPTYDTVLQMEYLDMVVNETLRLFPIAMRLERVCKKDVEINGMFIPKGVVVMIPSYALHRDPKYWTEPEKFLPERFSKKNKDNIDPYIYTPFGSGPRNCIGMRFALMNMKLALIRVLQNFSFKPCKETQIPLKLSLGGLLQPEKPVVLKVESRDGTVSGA
Chain of CYP2C9 (P11712 whole entry): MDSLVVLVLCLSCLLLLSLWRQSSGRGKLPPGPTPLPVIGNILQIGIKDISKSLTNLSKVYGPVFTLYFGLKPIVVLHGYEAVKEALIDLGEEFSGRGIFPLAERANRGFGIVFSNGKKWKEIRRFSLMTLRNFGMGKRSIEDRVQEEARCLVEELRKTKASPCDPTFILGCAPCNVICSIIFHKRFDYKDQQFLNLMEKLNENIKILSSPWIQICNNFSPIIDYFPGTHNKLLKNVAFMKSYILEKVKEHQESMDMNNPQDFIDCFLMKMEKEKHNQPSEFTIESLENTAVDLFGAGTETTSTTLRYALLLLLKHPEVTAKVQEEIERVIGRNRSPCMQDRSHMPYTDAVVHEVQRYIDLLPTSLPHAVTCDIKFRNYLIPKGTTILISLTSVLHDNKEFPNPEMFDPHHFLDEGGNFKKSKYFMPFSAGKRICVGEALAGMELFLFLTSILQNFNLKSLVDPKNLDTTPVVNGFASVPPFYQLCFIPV
Chain of mGluR4 (Q14833 33-912): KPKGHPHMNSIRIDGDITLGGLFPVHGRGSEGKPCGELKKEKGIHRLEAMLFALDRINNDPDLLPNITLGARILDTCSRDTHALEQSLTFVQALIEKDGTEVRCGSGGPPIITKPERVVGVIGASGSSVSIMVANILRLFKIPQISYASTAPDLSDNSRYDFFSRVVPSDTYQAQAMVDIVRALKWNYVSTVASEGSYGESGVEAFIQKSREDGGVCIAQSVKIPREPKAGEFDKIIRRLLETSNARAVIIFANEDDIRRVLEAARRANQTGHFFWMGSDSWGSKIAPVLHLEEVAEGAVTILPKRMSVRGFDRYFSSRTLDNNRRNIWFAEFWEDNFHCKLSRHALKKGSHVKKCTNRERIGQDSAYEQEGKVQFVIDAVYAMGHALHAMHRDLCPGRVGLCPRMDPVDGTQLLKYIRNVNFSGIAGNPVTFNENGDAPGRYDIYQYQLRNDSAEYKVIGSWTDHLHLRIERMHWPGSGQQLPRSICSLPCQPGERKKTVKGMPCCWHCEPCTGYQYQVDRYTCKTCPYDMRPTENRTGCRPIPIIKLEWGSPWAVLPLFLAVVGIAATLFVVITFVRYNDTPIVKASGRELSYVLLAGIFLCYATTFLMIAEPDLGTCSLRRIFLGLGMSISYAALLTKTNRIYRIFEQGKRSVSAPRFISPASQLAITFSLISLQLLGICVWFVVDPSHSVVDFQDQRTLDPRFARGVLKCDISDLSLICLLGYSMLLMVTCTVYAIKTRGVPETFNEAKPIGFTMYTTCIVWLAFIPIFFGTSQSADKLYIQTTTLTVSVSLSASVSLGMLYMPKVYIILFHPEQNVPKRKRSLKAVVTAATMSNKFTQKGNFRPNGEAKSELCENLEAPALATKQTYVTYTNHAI

Cc1cc(-c2cccc(NS(C)(=O)=O)c2)cc2c1C(=O)N(C(C)C)C2 [AZ12559322, N-[3-(2-isopropyl-7-methyl-1-oxo-2,3-dihydro-1H-isoindol-5-yl)phenyl]methanesulfonamide] gave an inhibition at 1 µM (CYP2C9; at 1 μM) of 8%, an inhibition at 10 µM (CYP2C9; at 10 μM) of 46% and a pKa (pKa) of 8.46. The IC50 (mGluR2 [1]) was 4.7 nM, the “Selectivity for mGluR2 over all other mGluR subtypes” value (mGluR2 [1]; against all other mGluRs) was greater than 4000 fold and the IC50 (mGluR7) was greater than 30000 nM. The IC50 (mGluR8) was greater than 20300 nM, the IC50 (mGluR1) was greater than 30000 nM and the IC50 (mGluR3) was greater than 25000 nM. It also gave an IC50 (mGluR4) greater than 23600 nM, an IC50 (mGluR6) greater than 30000 nM and an IC50 (mGluR5) greater than 30000 nM. The inhibition at 1 µM (CYP2C19; at 1 μM) was 13%, the inhibition at 10 µM (CYP2C19; at 10 μM) was 51% and the inhibition at 1 µM (CYP2D6; at 1 μM) was 0%. It also gave an inhibition at 10 µM (CYP2D6; at 10 μM) of 11%, an IC50 (hERG channel) of 9350 nM and a Ki (mGluR2 [2]) of 2.68 nM. It also gave a Kd (mGluR2 [2]) of 11 nM, a Specific binding% (mGluR2 [2]; specific binding to mGluR2 in vitro) of 89% and a Kd (mGluR2 [3]) of 1.31 nM. The inhibition at 1 µM (CYP3A4; at 1 μM) was 0%, the inhibition at 10 µM (CYP3A4; at 10 μM) was 12% and the inhibition at 10 µM (CYP1A2) was 37%.
Cc1cc(-c2cccc(NS(C)(=O)=O)c2)cc2c1C(=O)N(C1CCC1)C2 [AZ12588953, N-(3-(2-cyclobutyl-7-methyl-1-oxoisoindolin-5-yl)phenyl)methanesulfonamide] gave a Ki (mGluR2 [2]) of 2.02 nM and a Kd (mGluR2 [2]) of 4.7 nM.
Work on Cc1cc(-c2cccc(NS(C)(=O)=O)c2)cc2c1C(=O)N([C@@H](C)C(F)(F)F)C2 [AZ12592068, (S)-N-(3-(2-(1,1,1-trifluoropropan-2-yl)-7-methyl-1-oxoisoindolin-5-yl)phenyl)methanesulfonamide] yielded a Ki (mGluR2 [2]) of 0.71 nM and a Kd (mGluR2 [2]) of 2 nM.
With C[C@@H](C1CC1)N1Cc2cc(-c3cc(C(=O)N(C)C)no3)cc(Cl)c2C1=O [AZD8418] the “Diminished [3H]AZ12559322 binding in NHP prefrontal cortex” value (mGluR2 [4]) was 40–45%.
With Cc1cc(-c2nc(CN3CCNCC3)no2)cc2c1C(=O)N(Cc1ccc(OC(F)(F)F)cc1)C2 [AZD8529] the “Modulation in in situ GTPγS ARG” value (mGluR2 [5]) was “positive modulation” and the “Modulation in in situ GTPγS ARG” value (mGluR2 [6]) was “positive modulation”.
In the case of COc1ccccc1Oc1ccc(N(Cc2cccnc2)S(=O)(=O)CC(F)(F)F)cc1 [LY-487379], the “Diminished [3H]AZ12559322 binding in NHP prefrontal cortex” value (mGluR2 [4]) is reported as 40–45%.
With Cc1cc(-c2cccc(NS(C)(=O)=O)c2)cc2c1C(=O)N(C(C)C)C2 [[^3H]AZ12559322, [^3H]-N-[3-(2-Isopropyl-7-methyl-1-oxo-2,3-dihydro-1H-isoindol-5-yl)phenyl]methanesulfonamide] the “Regional distribution of radioligand binding in rat brain sections” value (mGluR2 [7]) was “heterogeneous distribution”.
With CC(C)N1Cc2cc(-c3cccc(NS(C)(=O)=O)c3)cc([11CH3])c2C1=O [[^11C]AZ12559322] the “Brain exposure in PET imaging” value (mGluR2 [8]) was “low brain uptake”.
